Measured values as given in article PMC10178848, “Modulating fast skeletal muscle contraction protects skeletal muscle in animal models of Duchenne muscular dystrophy” (The Journal of Clinical Investigation, 2023).

Test system: mdx mouse EDL muscle
Test: Phosphoprotein array analysis (Cell Signaling Phospho Antibody Array)
Conditions: phospho/total, T vs C
Description: mdx mouse EDL muscle was prepared for ex vivo analysis as described (n = 5). Muscles were incubated for 1 hour with DMSO or EDG-5506 (5 μM) and then flash frozen in liquid nitrogen. Tissue preparation and analysis were performed as recommended by the manufacturer (Cell Signaling Phospho Antibody Array, Full Moon Biosystems).

## O=c1ccc(-c2cnc(OCC(F)(F)F)nc2)nn1Cc1cncc(F)c1 [EDG-5506]
  Ratio (T/C): Integrin beta-3 (Phospho-Tyr773) to total Integrin beta-3 (Ab-773): 0.8566
  Ratio (T/C): Interferon-gamma receptor alpha (Phospho-Tyr457) to total Interferon-alpha/beta receptor alpha chain (Ab-466): 0.992
  Ratio (T/C): JAK2 (Phospho-Tyr221) to total JAK2 (Ab-1007): 0.5849
  Ratio (T/C): JunB (Phospho-Ser259) to total JunB (Ab-259): 0.7783
  Ratio (T/C): LKB1 (Phospho-Thr189) to total LKB1 (Ab-334): 1.099
  Ratio (T/C): LYN (Phospho-Tyr507) to total LYN (Ab-507): 1.819
  Ratio (T/C): Lamin A/C (Phospho-Ser392) to total Lamin A/C (Ab-392): 0.4365
  Ratio (T/C): MDM2 (Phospho-Ser166) to total MDM2 (Ab-166): 0.7195
  Ratio (T/C): MEK1 (Phospho-Ser217) to total MEK1 (Ab-291): 0.8093
  Ratio (T/C): MEK1 (Phospho-Ser221) to total MEK1 (Ab-291): 1.481
  Ratio (T/C): MITF (Phospho-Ser73) to total MITF (Ab-73): 0.8065
  Ratio (T/C): MSK1 (Phospho-Ser376) to total MSK1 (Ab-360): 1.21
  Ratio (T/C): Myc (Phospho-Ser62) to total Myc (Ab-58): 0.9423
  Ratio (T/C): NFkB-p65 (Phospho-Ser311) to total NFkB-p65 (Ab-529): 0.8783
  Ratio (T/C): NFkB-p65 (Phospho-Ser529) to total NFkB-p65 (Ab-529): 0.8263
  Ratio (T/C): NFkB-p100/p52 (Phospho-Ser865) to total NFkB-p100/p52 (Ab-865): 1.159
  Ratio (T/C): NFkB-p105/p50 (Phospho-Ser337) to total NFkB-p105/p50 (Ab-927): 1.219
  Ratio (T/C): P38 MAPK (Phospho-Thr180/Tyr182) to total P38 MAPK (Ab-182): 0.2071
  Ratio (T/C): P70S6K (Phospho-Ser424) to total P70S6K (Ab-229): 0.7495
  Ratio (T/C): P70S6K (Phospho-Thr421) to total P70S6K (Ab-229): 1.055
  Ratio (T/C): P73 (Phospho-Tyr99) to total P73 (Ab-99): 1.0107
  Ratio (T/C): P90RSK (Phospho-Thr359/Ser363) to total P90RSK (Ab-359/363): 0.8912
  Ratio (T/C): PDK1 (Phospho-Ser241) to total PDK1 (Ab-241): 0.9138
  Ratio (T/C): PLCG1 (Phospho-Tyr783) to total PLCG1 (Ab-783): 1.902
  Ratio (T/C): PLK1 (Phospho-Thr210) to total PLK1 (Ab-210): 0.3997
  Ratio (T/C): PP1 alpha (Phospho-Thr320) to total PP1 alpha (Ab-320): 0.867
  Ratio (T/C): PP2A-alpha (Phospho-Tyr307) to total PP2A-alpha (Ab-307): 0.7589
  Ratio (T/C): PPAR-gamma (Phospho-Ser112) to total PPAR-gamma (Ab-112): 0.8451
  Ratio (T/C): PTEN (Phospho-Ser380/Thr382/Thr383) to total PTEN (Ab-380): 0.6925
  Ratio (T/C): RSK1/2/3/4 (Phospho-Ser221/227/218/232) to total RSK1/2/3/4 (Ab-221/227/218/232): 1.05
  Ratio (T/C): Raf1 (Phospho-Ser259) to total Raf1 (Ab-43): 0.9472
  Ratio (T/C): Rb (Phospho-Ser608) to total Rb (Ab-807): 0.5194
  Ratio (T/C): Rb (Phospho-Ser807) to total Rb (Ab-807): 0.4329
  Ratio (T/C): RelB (Phospho-Ser552) to total RelB (Ab-552): 0.7768
  Ratio (T/C): SHP-2 (Phospho-Tyr542) to total SHP-2 (Ab-542): 0.9242
  Ratio (T/C): SRF (Phospho-Ser99) to total SRF (Ab-99): 0.6381
  Ratio (T/C): STAT2 (Phospho-Tyr690) to total STAT2 (Ab-690): 1.1086
  Ratio (T/C): STAT3 (Phospho-Tyr705) to total STAT3 (Ab-705): 0.8721
  Ratio (T/C): STAT5B (Phospho-Ser731) to total STAT5B (Ab-731): 1.008
  Ratio (T/C): STAT6 (Phospho-Thr645) to total STAT6 (Ab-645): 0.7953
  Ratio (T/C): SYK (Phospho-Tyr348) to total SYK (Ab-525): 0.9191
  Ratio (T/C): Shc (Phospho-Tyr349) to total Shc (Ab-349): 1.943
  Ratio (T/C): Smad1 (Phospho-Ser187) to total Smad1 (Ab-465): 1.9576
  Ratio (T/C): Smad2 (Phospho-Ser467) to total Smad2 (Ab-255): 0.3873
  Ratio (T/C): Smad2/3 (Phospho-Thr8) to total Smad2 (Ab-255): 0.779
  Ratio (T/C): Smad3 (Phospho-Ser213) to total Smad3 (Ab-425): 2.4313
  Ratio (T/C): Src (Phospho-Tyr418) to total Src (Ab-418): 0.4536
  Ratio (T/C): Synuclein alpha (Phospho-Tyr136) to total Synuclein alpha (Ab-125): 1.009
  Ratio (T/C): Tau (Phospho-Ser235) to total Tau (Ab-235): 0.4913
  Ratio (T/C): Tau (Phospho-Ser396) to total Tau (Ab-235): 0.4515
  Ratio (T/C): Trk B (Phospho-Tyr515) to total Trk B (Ab-515): 0.8791
  Ratio (T/C): VEGFR2 (Phospho-Tyr1175) to total VEGFR2 (Ab-1214): 0.7882
  Ratio (T/C): VEGFR2 (Phospho-Tyr1214) to total VEGFR2 (Ab-1214): 1.1348
  Ratio (T/C): Zap-70 (Phospho-Tyr319) to total Zap-70 (Ab-319): 0.9346
  Ratio (T/C): c-Jun (Phospho-Ser73) to total c-Jun (Ab-243): 0.8772
  Ratio (T/C): eEF2K (Phospho-Ser366) to total eEF2K (Ab-366): 0.5517
  Ratio (T/C): eIF2A (Phospho-Ser51) to total eIF2A (Ab-51): 1.082
  Ratio (T/C): eNOS (Phospho-Ser615) to total eNOS (Ab-1179): 1.215
  Ratio (T/C): mTOR (Phospho-Ser2481) to total mTOR (Ab-2481): 1.125
  Ratio (T/C): p44/42 MAP Kinase (Phospho-Tyr204) to total p44/42 MAP Kinase (Ab-202): 0.9379
  Ratio (T/C): p53 (Phospho-Ser9) to total p53 (Ab-315): 0.8012
  Ratio (T/C): p53 (Phospho-Ser15) to total p53 (Ab-315): 0.1195
  Ratio (T/C): p53 (Phospho-Ser315) to total p53 (Ab-315): 0.641
